# Experimental data as given in patent publication US20240108738A1, “BICYCLIC PEPTIDE LIGANDS SPECIFIC FOR NK CELLS” (Bicycle Tx Limited, priority 2021, published 2024).
# Numbered stars: 1 amine (or outer) side, 2 acyl side, 3 side chain; on linkers, the order of the positions; unused ones are H or OH. Bridge positions count the residues as written; N and C are the ends. Square brackets hold non-standard residues; d marks the D form. Peptide text beside a SMILES is read from it. TATA = O=C(CC[*:1])N1CN(C(=O)CC[*:2])CN(C(=O)CC[*:3])C1; X1 = C(c1nc(C[*:2])nc(C[*:3])n1)[*:1]
# Biological target: CD16a (V Variant) (Homo sapiens, UniProt P08637, F176V)
# Assay: FcγRIII (CD16a) SPR (Method A and/or Method B), V variant
# Assay type: binding
# Settings: not given
# CD16a (V Variant), sequence (P08637 17-208 F176V): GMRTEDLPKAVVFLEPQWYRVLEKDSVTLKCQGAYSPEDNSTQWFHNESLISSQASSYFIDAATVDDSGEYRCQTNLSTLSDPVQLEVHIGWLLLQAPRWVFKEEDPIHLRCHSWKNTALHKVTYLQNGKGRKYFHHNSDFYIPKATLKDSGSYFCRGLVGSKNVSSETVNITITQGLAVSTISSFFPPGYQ
row,Compound,Kd
1,"CC(C)[C@@H]1NC(=O)[C@H](CO)NC(=O)[C@H](Cc2c[nH]c3ccccc23)NC(=O)[C@H](CCCNC(=N)N)NC(=O)[C@@H](NC(=O)[C@H](C)N)CSCc2nc3nc(n2)CSC[C@H](NC(=O)[C@@H]2CCCN2C(=O)[C@H](CC(=O)O)NC(=O)[C@H](CCC(=O)O)NC1=O)C(=O)N[C@H](C)C(=O)N[C@@H](C)C(=O)N[C@@H](Cc1c[nH]c2ccccc12)C(=O)N[C@H](C(=O)N[C@@H](C)C(N)=O)CSC3 [BCY14956, A-(SEQ ID NO: 178)-A] (H-ACRWSVEDPC[dA]AWCA-NH2; linker 2-10-14 via X1; N-terminus assumed)",2150 nM
2,"C[C@H](N)C(=O)N[C@H]1CSCc2nc3nc(n2)CSC[C@H](NC(=O)[C@@H]2CCCN2C(=O)[C@H](CCC(=O)O)NC(=O)[C@H](CO)NC(=O)[C@H](Cc2ccccc2)NC(=O)[C@H](Cc2c[nH]cn2)NC(=O)[C@H](Cc2c[nH]c4ccccc24)NC(=O)[C@H](CCCNC(=N)N)NC1=O)C(=O)N[C@H](C)C(=O)N[C@@H](C)C(=O)N[C@@H](Cc1c[nH]c2ccccc12)C(=O)N[C@H](C(=O)N[C@@H](C)C(N)=O)CSC3 [BCY20392, A-(SEQ ID NO: 235)-A] (H-ACRWHFSEPC[dA]AWCA-NH2; linker 2-10-14 via X1; C-terminus assumed)",385 nM

# Same assay, conditions: SPR Method A and/or B, Table 6B; read-out: Kd (nM) (V Variant)
row,Compound,Kd
1,"CC(C)C[C@@H]1NC(=O)[C@@H]2CCCN2C(=O)[C@H](Cc2c[nH]cn2)NC(=O)[C@@H]2CSCCC(=O)N3CN(CN(C3)C(=O)CCSC[C@H](NC(=O)[C@H](C)N)C(=O)N3CCC[C@H]3C(=O)N3CCC[C@H]3C(=O)N[C@@H](C)C(=O)N[C@@H](C(C)C)C(=O)N[C@@H](Cc3ccc(O)cc3)C(=O)N2)C(=O)CCSC[C@@H](C(=O)N[C@@H](C)C(N)=O)NC(=O)[C@H](CC(=O)O)NC1=O [BCY11673, A-(SEQ ID NO: 169)-A] (H-ACPPAVYCHPLDCA-NH2; linker 2-8-13 via TATA; C-terminus assumed)",3310 nM
2,"CC(C)C[C@@H]1NC(=O)[C@@H]2CCCN2C(=O)[C@H](Cc2c[nH]cn2)NC(=O)[C@@H]2CSCCC(=O)N3CN(CN(C3)C(=O)CCSC[C@H](NC(=O)[C@H](C)N)C(=O)N3CCC[C@H]3C(=O)N3CCC[C@H]3C(=O)N[C@@H](CCC(=O)O)C(=O)N[C@@H](C(C)C)C(=O)N[C@@H](Cc3ccccc3)C(=O)N2)C(=O)CCSC[C@@H](C(=O)N[C@@H](C)C(N)=O)NC(=O)[C@H](CC(=O)O)NC1=O [BCY11809, A-(SEQ ID NO: 170)-A] (H-ACPPEVFCHPLDCA-NH2; linker 2-8-13 via TATA; N-terminus and C-terminus assumed)",4330 nM
3,"CC(C)C[C@@H]1NC(=O)[C@@H]2CCCN2C(=O)[C@H](Cc2c[nH]cn2)NC(=O)[C@@H]2CSCCC(=O)N3CN(CN(C3)C(=O)CCSC[C@H](NC(=O)[C@H](C)N)C(=O)N3CCC[C@H]3C(=O)N3CCC[C@H]3C(=O)N[C@@H](CCC(=O)O)C(=O)N[C@@H](C(C)C)C(=O)N[C@@H](Cc3ccc(O)cc3)C(=O)N2)C(=O)CCSC[C@@H](C(=O)N[C@@H](C)C(N)=O)NC(=O)[C@H](CC(=O)O)NC1=O [BCY11810, A-(SEQ ID NO: 171)-A] (H-ACPPEVYCHPLDCA-NH2; linker 2-8-13 via TATA)",832 nM
4,"CC(C)C[C@@H]1NC(=O)[C@@H]2CCCN2C(=O)[C@H](Cc2c[nH]cn2)NC(=O)[C@@H]2CSCCC(=O)N3CN(CN(C3)C(=O)CCSC[C@H](NC(=O)[C@H](C)N)C(=O)N3CCC[C@H]3C(=O)N3CCC[C@H]3C(=O)N[C@@H]([C@@H](C)O)C(=O)N[C@@H](C(C)C)C(=O)N[C@@H](Cc3ccc(O)cc3)C(=O)N2)C(=O)CCSC[C@@H](C(=O)N[C@@H](C)C(=O)N(C)CC(=O)N(C)CC(=O)N(C)CC(=O)N(C)CC(=O)N(C)CC(=O)N(C)CC(=O)N[C@@H](CCCCNC(=O)CCCC[C@@H]2SC[C@@H]3NC(=O)N[C@@H]32)C(N)=O)NC(=O)[C@H](CC(=O)O)NC1=O [BCY12621, A-(SEQ ID NO: 60)-A-[Sar6]-[KBiot]]",1900 nM

# Biological target: T1, Fc-tagged human NKp46 (Homo sapiens, UniProt O76036)
# T1 construct: purchased ACROBiosystems NC1-H5257
# Assay: NKp46 SPR assay (Method 1 and/or Method 2)
# Assay type: binding
# Settings: SPR Method 1 and/or Method 2, Table 3B
# Procedure, shortened: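 Method 1: biotinylated Avi-tag NKp46-Fc on streptavidin chip, peptides to 100-5000 nM top in PBS/0.05% Tween 20, 0.5% DMSO; 1:1 kinetic fit with mass transport. Method 2: NKp46-Fc captured by anti-Fc, PBS-P+ 2% DMSO; steady-state or kinetic 1:1 fit. Both 25° C, 50 μl/min, 60 s association.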
# T1 sequence (O76036 22-304): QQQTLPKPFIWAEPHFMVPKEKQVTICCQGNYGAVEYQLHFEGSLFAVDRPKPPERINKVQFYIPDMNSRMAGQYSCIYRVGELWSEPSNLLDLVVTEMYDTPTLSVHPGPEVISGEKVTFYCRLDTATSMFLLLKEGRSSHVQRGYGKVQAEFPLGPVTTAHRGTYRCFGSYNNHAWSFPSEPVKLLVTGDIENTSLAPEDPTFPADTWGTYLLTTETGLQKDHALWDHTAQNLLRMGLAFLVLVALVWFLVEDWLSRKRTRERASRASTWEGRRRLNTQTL
row,Compound,Kd
1,"CSCC[C@@H]1NC(=O)[C@@H]2CSCCC(=O)N3CN(CN(C3)C(=O)CCSC[C@@H](C(=O)N[C@@H](C)C(N)=O)NC(=O)[C@H](C(C)C)NC(=O)[C@H](CCCCN)NC(=O)CNC(=O)[C@H]([C@@H](C)O)NC(=O)[C@H](C(C)C)NC1=O)C(=O)CCSC[C@H](NC(=O)[C@H](C)N)C(=O)N[C@@H](CC(N)=O)C(=O)N[C@@H](CC(C)C)C(=O)N[C@@H](CCC(N)=O)C(=O)N[C@@H](C)C(=O)N1CCC[C@H]1C(=O)N2 [BCY19702, A-(SEQ ID NO: 93)-A] (H-ACNLQAPCMVTGKVCA-NH2; linker 2-8-15 via TATA; N-terminus assumed)",2.68 µM

# Biological target: CD16a (F Variant) (Homo sapiens, UniProt P08637)
# Assay: FcγRIII (CD16a) SPR (Method A and/or Method B), F variant
# Assay type: binding
# Settings: SPR Method A and/or B, Table 6B; read-out: Kd (nM) (F Variant)
row,Compound,Kd
1,"CC(C)C[C@@H]1NC(=O)[C@@H]2CCCN2C(=O)[C@H](Cc2c[nH]cn2)NC(=O)[C@@H]2CSCCC(=O)N3CN(CN(C3)C(=O)CCSC[C@H](NC(=O)[C@H](C)N)C(=O)N3CCC[C@H]3C(=O)N3CCC[C@H]3C(=O)N[C@@H](C)C(=O)N[C@@H](C(C)C)C(=O)N[C@@H](Cc3ccc(O)cc3)C(=O)N2)C(=O)CCSC[C@@H](C(=O)N[C@@H](C)C(N)=O)NC(=O)[C@H](CC(=O)O)NC1=O [BCY11673, A-(SEQ ID NO: 169)-A] (H-ACPPAVYCHPLDCA-NH2; linker 2-8-13 via TATA; C-terminus assumed)",17100 nM
2,"CC(C)C[C@@H]1NC(=O)[C@@H]2CCCN2C(=O)[C@H](Cc2c[nH]cn2)NC(=O)[C@@H]2CSCCC(=O)N3CN(CN(C3)C(=O)CCSC[C@H](NC(=O)[C@H](C)N)C(=O)N3CCC[C@H]3C(=O)N3CCC[C@H]3C(=O)N[C@@H](CCC(=O)O)C(=O)N[C@@H](C(C)C)C(=O)N[C@@H](Cc3ccccc3)C(=O)N2)C(=O)CCSC[C@@H](C(=O)N[C@@H](C)C(N)=O)NC(=O)[C@H](CC(=O)O)NC1=O [BCY11809, A-(SEQ ID NO: 170)-A] (H-ACPPEVFCHPLDCA-NH2; linker 2-8-13 via TATA; N-terminus and C-terminus assumed)",28600 nM
3,"CC(C)C[C@@H]1NC(=O)[C@@H]2CCCN2C(=O)[C@H](Cc2c[nH]cn2)NC(=O)[C@@H]2CSCCC(=O)N3CN(CN(C3)C(=O)CCSC[C@H](NC(=O)[C@H](C)N)C(=O)N3CCC[C@H]3C(=O)N3CCC[C@H]3C(=O)N[C@@H](CCC(=O)O)C(=O)N[C@@H](C(C)C)C(=O)N[C@@H](Cc3ccc(O)cc3)C(=O)N2)C(=O)CCSC[C@@H](C(=O)N[C@@H](C)C(N)=O)NC(=O)[C@H](CC(=O)O)NC1=O [BCY11810, A-(SEQ ID NO: 171)-A] (H-ACPPEVYCHPLDCA-NH2; linker 2-8-13 via TATA)",3610 nM
